According to ChEMBL document CHEMBL4419175, “Compositions for treatment, diagnosis and prognosis of diseases” (2016):
Calls of active or inactive are those of the source. The calls are words filed in the database; no cut-off is given here.

Key:
[1] = tested on: PC-3; assay: Induction of morphological changes in human PC3 cells assessed as reduction in cell size at 50 uM incubated for 48 hrs by live cell imaging system based assay; format: functional
[2] = Toxicity in mouse xenografted with human PC3 cells assessed as induction of body weight loss at 40 mg/kg co-treated with 10 mg/kg docetaxel dosed every second day starting from day 0 and ending on day 20; format: organism-based; settings: in vivo
[3] = tested on: LNCaP; assay: Inhibition of PIP5K1alpha protein expression in human LNCAP cells at 20 uM incubated for 48 hrs by immunoblot analysis; format: functional, cell-based
[4] = tested on: MDA-MB-231; assay: Inhibition of cell proliferation in human MDA-MB-231 cells assessed as reduction in viable cell count at 10 to 100 uM incubated for 48 hrs; format: functional, cell-based
[5] = tested on: PC-3; assay: Antiproliferation activity against human PC3 cells assessed as cell proliferation at 10 uM by MTS assay; format: functional; settings: read-out: Activity
[6] = tested on: PC-3; assay: Induction of apoptosis in human PC3 cells assessed as necrotic cells at 50 uM incubated for 48 hrs by Annexin-/7-AAD staining based FACS analysis (reference value: 0.32%); format: functional
[7] = tested on: PC-3; assay: Inhibition of PIP5K1alpha protein expression in human PC3 cells assessed as reduction in CDK1 expression at 50 uM incubated for 48 hrs by immunoblot analysis relative to control; format: functional, cell-based
[8] = tested on: PC-3; assay: Induction of apoptosis in human PC3 cells assessed as viable cells at 50 uM incubated for 48 hrs by Annexin-/7-AAD staining based FACS analysis (reference value: 94.31%); format: functional; settings: PC-3, 48 h, read-out: Activity
[9] = tested on: PC-3; assay: Inhibition of PKAR1alpha protein expression in human PC3 cells at 20 uM incubated for 48 hrs by immunoblot analysis; format: functional, cell-based
[10] = tested on: PC-3; assay: Antitumor activity against human PC3 cells xenografted in mouse assessed as reduction in volume at 40 mg/kg co-treated with 10 mg/kg docetaxel dosed every second day starting from day 0 and ending on day 20 (reference value: 500 mm3); format: functional
[11] = biological target: T1, MAP/microtubule affinity-regulating kinase 4 (Homo sapiens) (UniProt Q96L34); assay: Binding affinity to human MARK4
T1 sequence (whole entry): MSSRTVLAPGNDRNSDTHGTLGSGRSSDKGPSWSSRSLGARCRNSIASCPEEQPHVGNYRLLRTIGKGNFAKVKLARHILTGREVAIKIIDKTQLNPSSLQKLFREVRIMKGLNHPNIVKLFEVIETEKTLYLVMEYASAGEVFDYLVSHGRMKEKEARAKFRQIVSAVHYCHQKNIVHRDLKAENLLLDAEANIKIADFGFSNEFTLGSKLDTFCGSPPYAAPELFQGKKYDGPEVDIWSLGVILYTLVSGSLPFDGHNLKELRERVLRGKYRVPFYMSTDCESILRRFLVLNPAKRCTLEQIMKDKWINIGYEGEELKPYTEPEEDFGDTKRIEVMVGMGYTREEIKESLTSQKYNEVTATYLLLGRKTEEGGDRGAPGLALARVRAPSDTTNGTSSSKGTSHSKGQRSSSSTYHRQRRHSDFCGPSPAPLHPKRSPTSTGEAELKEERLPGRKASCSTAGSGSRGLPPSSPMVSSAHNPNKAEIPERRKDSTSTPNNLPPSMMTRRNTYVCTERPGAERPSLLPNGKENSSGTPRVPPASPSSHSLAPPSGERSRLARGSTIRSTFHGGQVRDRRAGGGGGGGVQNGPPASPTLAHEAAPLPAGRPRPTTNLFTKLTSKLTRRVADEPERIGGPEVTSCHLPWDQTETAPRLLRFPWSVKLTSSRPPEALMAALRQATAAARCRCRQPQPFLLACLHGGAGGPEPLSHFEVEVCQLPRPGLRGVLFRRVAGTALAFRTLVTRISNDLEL

[12] = tested on: Caco-2; assay: Inhibition of cell proliferation in human Caco2 cells assessed as reduction in viable cell count at 10 to 100 uM incubated for 48 hrs; format: functional, cell-based
[13] = tested on: PC-3; assay: Inhibition of PIP5K1alpha protein expression in human PC3 cells assessed as reduction in cyclin A2 expression at 50 uM incubated for 48 hrs by immunoblot analysis relative to control; format: functional, cell-based
[14] = tested on: LNCaP; assay: Increase in p27 protein expression in human LNCAP cells at 20 uM incubated for 48 hrs by immunoblot analysis; format: functional, cell-based
[15] = biological target: Serine/threonine-protein kinase MARK1 (Homo sapiens) (UniProt Q9P0L2); assay: Binding affinity to human MARK1
[16] = tested on: PC-3; assay: Antiproliferation activity against human PC3 cells assessed as cell proliferation at 50 uM by MTS assay; format: functional; settings: read-out: Activity
[17] = tested on: LNCaP; assay: Effect on CREB phosphorylation in human LNCAP cells at 20 uM incubated for 48 hrs by immunoblot analysis; format: functional, cell-based
[18] = tested on: LNCaP; assay: Induction of apoptosis in human LNCAP cells assessed as formation of fragmented nucleus at 20 uM incubated for 48 hrs; format: functional, cell-based
[19] = tested on: HCT-116; assay: Inhibition of cell proliferation in human HCT116 cells assessed as reduction in viable cell count at 10 to 100 uM incubated for 48 hrs; format: functional, cell-based
[20] = tested on: CWR22R; assay: Antiproliferation activity against human 22Rv1 cells assessed as cell proliferation at 10 to 50 uM by MTS assay; format: functional, cell-based
[21] = tested on: PC-3; assay: Inhibition of cell invasion in human PC3 cells assessed as cell invasion relative to control; format: functional; set-up: scale not given: the % may be the effect or the level left
[22] = tested on: PC-3; assay: Inhibition of PIP5K1alpha protein expression in human PC3 cells assessed as AKT phosphorylation at Ser473 residues at 50 uM incubated for 48 hrs by immunoblot analysis relative to control; format: functional; set-up: scale not given: the % may be the effect or the level left
[23] = tested on: LNCaP; assay: Inhibition of PSA protein expression in human LNCAP cells at 20 uM incubated for 48 hrs by immunoblot analysis; format: functional, cell-based
[24] = tested on: U-937; assay: Inhibition of cell proliferation in human U937 cells assessed as reduction in viable cell count at 10 to 100 uM incubated for 48 hrs; format: functional, cell-based
[25] = Toxicity in mouse xenografted with human PC3 cells assessed as induction of body weight loss at 40 mg/kg dosed every second day starting from day 0 and ending on day 20; format: organism-based; settings: in vivo
[26] = tested on: PC-3; assay: Inhibition of PIP3 protein expression in human PC3 cells at 50 uM incubated for 48 hrs by immunoblot analysis; format: functional, cell-based
[27] = tested on: PC-3; assay: Inhibition of PIP5K1alpha protein expression in human PC3 cells assessed as PIP5K1alpha/beta-actin ratio level at 20 uM incubated for 48 hrs by immunoblot analysis (reference value: 9.43); format: functional
[28] = tested on: PC-3; assay: Inhibition of cell adhesion in human PC3 cells assessed as cell adhesion relative to control; format: functional; set-up: scale not given: the % may be the effect or the level left
[29] = tested on: PC-3; assay: Inhibition of PIP5K1alpha protein expression in human PC3 cells at 20 uM incubated for 48 hrs by immunoblot analysis; format: functional, cell-based
[30] = biological target: Phosphatidylinositol 4-phosphate 5-kinase type-1 alpha (Homo sapiens) (UniProt Q99755); assay: Binding affinity to human PIP5K1alpha
[31] = tested on: PC-3; assay: Induction of cell cycle arrest in human PC3 cells assessed as change in accumulation at G2/M phase at 50 uM incubated for 48 hrs by flow cytometry relative to control; format: functional
[32] = tested on: PC-3; assay: Induction of apoptosis in human PC3 cells assessed as early apoptotic cells at 50 uM incubated for 48 hrs by Annexin-/7-AAD staining based FACS analysis (reference value: 2.53%); format: functional
[33] = tested on: LNCaP; assay: Inhibition of cell proliferation in human LNCAP cells assessed as reduction in viable cell count at 10 to 100 uM incubated for 48 hrs; format: functional, cell-based
[34] = tested on: PC-3; assay: Induction of apoptosis in human PC3 cells assessed as late apoptotic cells at 50 uM incubated for 48 hrs by Annexin-/7-AAD staining based FACS analysis (reference value: 2.83%); format: functional
[35] = tested on: PC-3; assay: Inhibition of PIP5K1alpha protein expression in human PC3 cells assessed as reduction in cyclin D1 expression at 50 uM incubated for 48 hrs by immunoblot analysis relative to control; format: functional, cell-based
[36] = tested on: LNCaP; assay: Inhibition of PIP5K1alpha protein expression in human LNCAP cells assessed as reduction in AKT phosphorylation at Ser473 residues at 20 uM incubated for 48 hrs by immunofluorescent analysis relative to control; format: functional, cell-based
[37] = tested on: PC-3; assay: Inhibition of PIP5K1alpha protein expression in human PC3 cells assessed as reduction in cyclin B1 expression at 50 uM incubated for 48 hrs by immunoblot analysis relative to control; format: functional, cell-based
[38] = tested on: PC-3; assay: Antitumor activity against human PC3 cells xenografted in mouse assessed as reduction in volume at 40 mg/kg dosed every second day starting from day 0 and ending on day 20 relative to control; format: functional
[39] = tested on: PC-3; assay: Inhibition of PIP5K1alpha protein expression in human PC3 cells assessed as reduction in FAK phosphorylation incubated for 48 hrs by immunoblot analysis relative to control; format: functional, cell-based
[40] = tested on: LNCaP; assay: Inhibition of AR protein expression in human LNCAP cells at 20 uM incubated for 48 hrs by immunoblot analysis; format: functional, cell-based
[41] = tested on: LNCaP; assay: Reduction in SKP2 protein expression in human LNCAP cells at 20 uM incubated for 48 hrs by immunoblot analysis; format: functional, cell-based
[42] = tested on: PC-3; assay: Induction of morphological changes in human PC3 cells assessed as changes in morphology at 50 uM incubated for 48 hrs by live cell imaging system based assay; format: functional
[43] = tested on: LNCaP; assay: Reduction in CDK1 protein expression in human LNCAP cells at 20 uM incubated for 48 hrs by immunoblot analysis; format: functional, cell-based
[44] = tested on: LNCaP; assay: Induction of apoptosis in human LNCAP cells assessed as formation of apoptotic bodies at 20 uM incubated for 48 hrs; format: functional, cell-based
[45] = tested on: LNCaP; assay: Inhibition of PIP5K1alpha protein expression in human LNCAP cells assessed as reduction in AKT phosphorylation at Ser473 residues at 20 uM incubated for 48 hrs by immunoblot analysis relative to control; format: functional
[46] = tested on: PC-3; assay: Inhibition of PIP5K1alpha protein expression in human PC3 cells assessed as reduction in CDK1 phosphorylation at 50 uM incubated for 48 hrs by immunoblot analysis relative to control; format: functional, cell-based
[47] = tested on: PC-3; assay: Inhibition of PIP5K1alpha protein expression in human PC3 cells assessed as reduction in cyclin E1 expression at 50 uM incubated for 48 hrs by immunoblot analysis relative to control; format: functional, cell-based
[48] = tested on: PC-3; assay: Antiproliferation activity against human PC3 cells assessed as cell proliferation at 20 uM by MTS assay; format: functional; settings: read-out: Activity

Phosphatidylinositol 4-phosphate 5-kinase type-1 alpha (Homo sapiens), sequence (Q99755 whole entry): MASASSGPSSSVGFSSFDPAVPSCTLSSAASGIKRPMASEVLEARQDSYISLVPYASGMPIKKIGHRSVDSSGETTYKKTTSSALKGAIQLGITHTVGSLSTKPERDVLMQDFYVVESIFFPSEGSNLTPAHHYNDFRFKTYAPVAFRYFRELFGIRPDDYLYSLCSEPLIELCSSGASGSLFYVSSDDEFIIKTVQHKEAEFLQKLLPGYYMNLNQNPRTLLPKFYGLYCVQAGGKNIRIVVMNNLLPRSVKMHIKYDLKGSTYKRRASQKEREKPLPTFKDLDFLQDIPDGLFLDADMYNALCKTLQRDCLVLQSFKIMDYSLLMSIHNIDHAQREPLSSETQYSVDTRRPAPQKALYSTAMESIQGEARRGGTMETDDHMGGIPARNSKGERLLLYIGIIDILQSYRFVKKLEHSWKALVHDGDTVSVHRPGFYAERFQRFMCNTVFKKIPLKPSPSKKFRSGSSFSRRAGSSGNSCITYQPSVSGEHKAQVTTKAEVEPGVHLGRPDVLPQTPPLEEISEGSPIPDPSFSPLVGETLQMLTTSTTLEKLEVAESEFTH
Serine/threonine-protein kinase MARK1 (Homo sapiens), sequence (Q9P0L2 whole entry, looked up): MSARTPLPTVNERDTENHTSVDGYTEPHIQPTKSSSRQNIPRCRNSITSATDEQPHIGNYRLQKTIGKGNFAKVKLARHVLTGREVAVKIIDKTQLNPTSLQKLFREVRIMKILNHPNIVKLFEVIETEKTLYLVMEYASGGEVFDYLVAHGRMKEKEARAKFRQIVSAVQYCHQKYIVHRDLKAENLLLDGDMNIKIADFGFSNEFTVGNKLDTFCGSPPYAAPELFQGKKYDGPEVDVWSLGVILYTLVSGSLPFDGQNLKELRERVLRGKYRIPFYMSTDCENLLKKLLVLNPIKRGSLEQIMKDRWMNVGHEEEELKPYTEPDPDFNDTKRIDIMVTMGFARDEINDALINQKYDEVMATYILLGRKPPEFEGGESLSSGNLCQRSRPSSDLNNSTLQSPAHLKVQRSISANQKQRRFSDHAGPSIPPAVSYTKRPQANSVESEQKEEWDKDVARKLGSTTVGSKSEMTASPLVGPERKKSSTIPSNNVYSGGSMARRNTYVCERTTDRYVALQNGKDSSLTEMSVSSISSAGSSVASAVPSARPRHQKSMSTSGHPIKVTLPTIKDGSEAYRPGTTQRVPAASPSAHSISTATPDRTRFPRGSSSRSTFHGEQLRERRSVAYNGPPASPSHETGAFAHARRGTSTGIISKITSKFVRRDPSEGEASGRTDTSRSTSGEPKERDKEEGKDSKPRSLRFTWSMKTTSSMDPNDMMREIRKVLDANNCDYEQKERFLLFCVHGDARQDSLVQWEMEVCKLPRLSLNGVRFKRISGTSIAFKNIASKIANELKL

- Activity [11]: Active
- Activity [15]: Active
- Activity [30]: Active
SMILES: CN1CC(=O)N2[C@H](c3c[nH]c4ccc(Cl)cc34)c3cc4c(cc3C[C@H]2C1=O)OCO4
- Activity [1]: Active
- Activity [2]: Non-Toxic
- inhibition [3]: Active
- inhibition [4]: Active
- growth at 10 µM [5]: 58.8%
- Activity [6]: 0.8%
- inhibition [7]: Active
- viability at 50 µM [8]: 80.2%
- inhibition [9]: inactive
- Activity [10]: 36 mm3
- inhibition [12]: Active
- inhibition [13]: Active
- Activity [14]: Active
- growth at 50 µM [16]: 21.6%
- Activity [17]: inactive
- Activity [18]: Active
- inhibition [19]: Active
- Activity [20]: Active
- Activity [21]: 55.96%
- Activity [22]: 29.77%
- inhibition [23]: Active
- inhibition [24]: Active
- Activity [25]: Non-Toxic
- Activity [26]: Active
- Ratio [27]: 2.01
- Activity [28]: 38.82%
- inhibition [29]: Active
- Activity [31]: 4.96%
- Activity [32]: 9.55%
- inhibition [33]: Active
- Activity [34]: 9.42%
- inhibition [35]: Active
- inhibition [36]: Active
- inhibition [37]: Active
- Activity [38]: 458 mm3
- inhibition [39]: Dose-dependent effect
- inhibition [40]: Active
- Activity [41]: Active
- Activity [42]: Active
- Activity [43]: Active
- Activity [44]: Active
- inhibition at 20 µM [45]: 75.5%
- inhibition [46]: Active
- inhibition [47]: Active
- growth at 20 µM [48]: 48.6%
